Experimental findings from ChEMBL document CHEMBL1201862, “PubChem BioAssay data set” (2004) are described below.

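Tested at 5 concentrations; 48 h exposure; 96-well plates; endpoints linearly interpolated, else capped at highest concentration. GI50 is the concentration that inhibits growth by half.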 The source made the active and inactive calls. No stated cut-off is given here; in the data, active = GI50 up to about 1.1 µM and inactive = higher. A value given as a limit tells only on which side of the number the result lay.

Test systems include A498; CAKI-1; CCRF-CEM; COLO 205; EKVX; HCC 2998; HCT-15; HL-60; HOP-62; HT-29; KM12; MOLT-4; NCI-H23; NCI-H460; OVCAR-4; OVCAR-5; SF-268; SF-295; U-251; ACHN.
Common to all, as to assay: NCI tumour cell line growth inhibition, 48 h

As to `CN1CCN(P2(=S)Oc3ccc4ccccc4c3-c3c(ccc4ccccc34)O2)CC1`, the GI50 in the assay with A498 was 52.5 µM (inactive); in the assay on CAKI-1, 15.4 µM (inactive); in the assay on CCRF-CEM it was 29.8 µM (inactive); in the assay on COLO 205, 16.5 µM (inactive); in the assay with EKVX it was 29.6 µM (inactive); in the assay with HCC 2998 it was 21 µM (inactive). The GI50 in the assay on HCT-15 was 28.7 µM; in the assay on HL-60, 13.1 µM (inactive); in the assay with HOP-62, 26.3 µM (inactive); in the assay with HT-29, 19.6 µM (inactive); in the assay with KM12, 21.6 µM (inactive); in the assay on MOLT-4, 15.1 µM (inactive). The GI50 is 37.5 µM (inactive) with NCI-H23; 19.5 µM (inactive) with NCI-H460; 36.6 µM (inactive) in the assay with OVCAR-4; 54.7 µM (inactive) with OVCAR-5; 38.4 µM (inactive) in the assay with SF-268; 34.9 µM (inactive) in the assay with SF-295. Besides, the GI50 with U-251 was 32.7 µM (inactive).

`O=C1N/C(=N/N=C/c2c[nH]c3ccccc23)N/C1=C\c1cccs1`: the GI50 with A498 was 16.2 µM (inactive); in the assay on ACHN, > 100 µM (inactive); with CAKI-1, > 100 µM (inactive); in the assay on CCRF-CEM, 4.44 µM (inactive); with COLO 205 it was > 100 µM (inactive); in the assay on EKVX, > 100 µM (inactive). Also, the GI50 with HCT-15 is more than 100 µM; in the assay on HL-60, 19.4 µM (inactive); in the assay with HOP-62, > 100 µM (inactive); in the assay with HT-29, 52.2 µM (inactive); with KM12, 55.8 µM (inactive); in the assay on MOLT-4, > 100 µM (inactive). Besides, the GI50 with NCI-H23, in the assay with NCI-H460, in the assay with OVCAR-4, in the assay with OVCAR-5, with SF-268 and in the assay on SF-295 was > 100 µM (inactive) each time. The GI50 in the assay on U-251 was 36.2 µM (inactive).

`Cc1cc(C)c(C2=NO[C@@H]3C(=O)N(c4ccc(Cc5ccc(N6C(=O)[C@H]7C(c8c(C)cc(C)cc8C)=NO[C@H]7C6=O)cc5)cc4)C(=O)[C@H]23)c(C)c1`: the GI50 in the assay with A498, in the assay with CAKI-1, with CCRF-CEM, in the assay on COLO 205, in the assay on EKVX and in the assay on HCC 2998 was > 100 µM (inactive) each time. In addition, the GI50 is more than 100 µM with HCT-15; > 100 µM (inactive) in the assay with HL-60; > 100 µM (inactive) in the assay on HOP-62; > 100 µM (inactive) with HT-29; > 100 µM (inactive) with KM12; > 100 µM (inactive) in the assay with MOLT-4. For the same molecule, the GI50 in the assay with NCI-H23, in the assay on OVCAR-4, with OVCAR-5, with SF-268 and in the assay with SF-295 was > 100 µM (inactive) each time.

Consider `CCOC(=O)/C=C(\C)c1ccc(Cl)cc1`, for which the GI50 in the assay on A498, with ACHN, in the assay with CAKI-1, in the assay with CCRF-CEM, in the assay with COLO 205 and in the assay on EKVX was > 100 µM (inactive) throughout. In addition, the GI50 was > 100 µM (inactive) with HCC 2998; more than 100 µM with HCT-15; > 100 µM (inactive) in the assay with HL-60; > 100 µM (inactive) with HT-29; > 100 µM (inactive) with KM12; > 100 µM (inactive) with MOLT-4. Further, the GI50 in the assay with NCI-H23, in the assay with NCI-H460, in the assay on OVCAR-4, with OVCAR-5, with SF-268 and in the assay with SF-295 was > 100 µM (inactive) throughout. Besides, the GI50 in the assay with U-251 was > 100 µM (inactive).

For the molecule `CC1=NC=C(O)c2ccccc2O1`, the GI50 in the assay with A498, in the assay with ACHN, in the assay with CCRF-CEM, with COLO 205, with EKVX and in the assay with HCC 2998 was > 100 µM (inactive) each time. The GI50 was more than 100 µM in the assay with HCT-15; > 100 µM (inactive) with HL-60; > 100 µM (inactive) in the assay with HOP-62; > 100 µM (inactive) in the assay with HT-29; > 100 µM (inactive) in the assay on KM12; > 100 µM (inactive) in the assay on MOLT-4. For the same molecule, the GI50 with NCI-H23 was > 100 µM (inactive); in the assay on NCI-H460, > 100 µM (inactive); with OVCAR-4, > 100 µM (inactive); in the assay on SF-268 it was > 100 µM (inactive); in the assay on SF-295, 45 µM (inactive); with U-251 it was > 100 µM (inactive).

With `CSc1cc(-c2cc3ccccc3o2)oc(=O)c1C#N`, the GI50 in the assay with A498 was > 100 µM (inactive); in the assay with ACHN, > 100 µM (inactive); in the assay on CAKI-1, 8.13 µM (inactive); with CCRF-CEM, > 100 µM (inactive); in the assay on COLO 205, > 100 µM (inactive); with EKVX, > 100 µM (inactive). For the same molecule, the GI50 in the assay with HCC 2998 is > 100 µM (inactive); in the assay with HCT-15, more than 100 µM; with HL-60, 18.9 µM (inactive); in the assay with HT-29, > 100 µM (inactive); with KM12, > 100 µM (inactive); in the assay with MOLT-4 it was > 100 µM (inactive). Further, the GI50 was > 100 µM (inactive) in the assay with NCI-H23; > 100 µM (inactive) in the assay with NCI-H460; > 100 µM (inactive) in the assay on OVCAR-4; 12.2 µM (inactive) with OVCAR-5; > 100 µM (inactive) in the assay with SF-268; 40.9 µM (inactive) with SF-295. Further, the GI50 in the assay on U-251 was > 100 µM (inactive).

Consider `COC1=C2CC(C)CC(OC)C(O)C(C)/C=C(\C)C(OC(N)=O)C(OC)/C=C\C=C(/C)C(=O)NC(=C(/C=N/C(C)(C)C)C1=O)C2=O` (stereo not drawn), for which the GI50 in the assay on A498 was 3.57 µM (inactive); in the assay on CAKI-1, 3.08 µM (inactive); in the assay with CCRF-CEM it was 0.857 µM (active); in the assay with COLO 205, 1.31 µM (inactive); in the assay on EKVX, 3.64 µM (inactive); with HCC 2998, 1.68 µM (inactive). Besides, the GI50 with HCT-15 was 6.28 µM; with HL-60 it was 0.479 µM (active); with HOP-62 it was 5.86 µM (inactive); with HT-29, 3.19 µM (inactive); in the assay with KM12, 4.62 µM (inactive); in the assay on MOLT-4, 3.44 µM (inactive). In addition, the GI50 in the assay on NCI-H23 was 0.849 µM (active); in the assay on NCI-H460 it was 2.44 µM (inactive); in the assay with OVCAR-4, 1.71 µM (inactive); in the assay on OVCAR-5, 37.3 µM (inactive); with SF-268, 6.3 µM (inactive); in the assay with SF-295, 5.02 µM (inactive). Besides, in the assay with U-251, the GI50 is 1.43 µM (inactive).

In the case of `CCN(CC)/[N+]([O-])=N/OC`, the GI50 in the assay on A498 was > 100 µM (inactive); in the assay on ACHN it was > 100 µM (inactive); in the assay on CCRF-CEM it was > 100 µM (inactive); in the assay with EKVX, > 100 µM (inactive); in the assay on HCC 2998, > 100 µM (inactive); with HCT-15 it was more than 100 µM. For the same molecule, the GI50 in the assay with HL-60, in the assay with HOP-62, in the assay on HT-29, in the assay on KM12, with MOLT-4 and in the assay on NCI-H23 was > 100 µM (inactive) in each case. Besides, the GI50 with NCI-H460, in the assay with OVCAR-5, in the assay with SF-268, with SF-295 and in the assay on U-251 was > 100 µM (inactive) in each case.

On to `CCOC(=O)/C=C/c1c(C)[nH]c(=O)[nH]c1=O`, for which the GI50 in the assay with A498 was > 250 µM (inactive); in the assay with CAKI-1, 191 µM (inactive); in the assay with CCRF-CEM, > 250 µM (inactive); in the assay with COLO 205 it was > 250 µM (inactive); in the assay on EKVX, > 250 µM (inactive); in the assay on HCC 2998 it was > 250 µM (inactive). Further, the GI50 with HCT-15 was more than 250 µM; with HL-60, > 250 µM (inactive); in the assay with HOP-62, > 250 µM (inactive); in the assay on HT-29, > 250 µM (inactive); in the assay on KM12 it was > 250 µM (inactive); in the assay with MOLT-4, > 250 µM (inactive). Also, the GI50 in the assay with NCI-H23 is > 250 µM (inactive); in the assay on NCI-H460 it was > 250 µM (inactive); in the assay on OVCAR-4 it was > 158 µM (inactive); with OVCAR-5, > 94.4 µM (inactive); with SF-268 it was > 250 µM (inactive); with SF-295 it was > 250 µM (inactive). In addition, in the assay on U-251, the GI50 is > 250 µM (inactive).

Regarding `Oc1ccc2ccccc2c1/N=N/c1cccc2ccccc12`, the GI50 in the assay with A498 was > 100 µM (inactive); in the assay with ACHN, > 100 µM (inactive); with CAKI-1, > 100 µM (inactive); with CCRF-CEM it was > 100 µM (inactive); with COLO 205, > 100 µM (inactive); with EKVX, 84.9 µM (inactive). Moreover, the GI50 is > 100 µM (inactive) in the assay on HCC 2998; more than 100 µM in the assay with HCT-15; > 100 µM (inactive) in the assay on HL-60; 48.5 µM (inactive) in the assay with HOP-62; > 100 µM (inactive) in the assay with KM12; > 100 µM (inactive) in the assay with MOLT-4. Besides, the GI50 in the assay on NCI-H23 is > 100 µM (inactive); in the assay on NCI-H460 it was > 100 µM (inactive); in the assay with OVCAR-4, > 100 µM (inactive); with OVCAR-5 it was > 100 µM (inactive); with SF-268, 55.5 µM (inactive); in the assay on SF-295, > 100 µM (inactive). In addition, the GI50 in the assay with U-251 is 50.6 µM (inactive).

As for `C=C(C)C(=O)O[C@H]1CC2=C[C@@H](C[C@@]3(C)O[C@@H]3[C@H]3OC(=O)C(=C)[C@@H]31)OC2=O` [ELEPHANTOPIN], the GI50 with A498 was 5.13 µM (inactive); in the assay with CAKI-1, 1.86 µM (inactive); in the assay on COLO 205, 0.885 µM (active); with EKVX it was 2.08 µM (inactive); with HCC 2998 it was 5.11 µM (inactive); in the assay on HCT-15, 0.927 µM. Besides, the GI50 in the assay on HL-60 is 0.486 µM (active); in the assay on HOP-62, 52.5 µM (inactive); in the assay with HT-29 it was 2.48 µM (inactive); in the assay on KM12, 3.31 µM (inactive); in the assay with MOLT-4, 0.412 µM (active); in the assay with NCI-H23 it was 1.87 µM (inactive). Also, the GI50 was 4.86 µM (inactive) in the assay with NCI-H460; 2.61 µM (inactive) in the assay on OVCAR-4; 6.55 µM (inactive) in the assay with OVCAR-5; 0.818 µM (active) in the assay with SF-268; 5.57 µM (inactive) in the assay with SF-295; 6.49 µM (inactive) in the assay on U-251.
